Experimental data: patent US20220235064A1 (WELLMARKER BIO CO., LTD., priority 2019, published 2022)

Key:
[1] = tested on: cancer cell line KM12C, in which RON is activated; assay: Cell-killing efficacy in RON-activated cancer cell line (trypan blue); assay type: cell-based; conditions: Homo sapiens, 48 hours, trypan blue, n=2, read-out: Cell death (%) Cancer cell line KM12C
Method: Experimental Example 3: Measurement of Cell-Killing Efficacy of Example Compounds in RON-Activated Cancer Cell Line
The cancer cell line KM12C (80015, KCLB, MEM+10% FBS), in which RON is activated, was dispensed into each 60 mm^2 dish at 1×10^5 cells. After 24 hours, the dish was treated with each of the example compounds at a concentration of 1 μM or 5 μM while performing medium exchange, and then reaction was allowed to proceed for 48 hours. After 48 hours, centrifugation was performed for 4 minutes at 1,500 rpm to collect cells and cell fluid. Thereafter, living cells and dead cells were quantified (n=2) using a trypan blue solution (15250-061, Gibco), and statistical analysis was performed using Excel-T-test. Here, as a negative control, only a solvent (0.100 DMSO) was used; and as a positive control, N-(4-(2-amino-3-chloropyridin-4-yloxy)-3-fluorophenyl)-4-ethoxy-1-(4-fluorophenyl)-2-oxo-1,2-dihydropyridine-3-carboxamide, which is the compound of Example 1 in WO 2008/058229 A1, was used.

RON tyrosine kinase = biological target: T1, RON tyrosine kinase (Homo sapiens, UniProt Q04912); assay: Enzyme inhibitory activity against RON tyrosine kinase (TR-FRET); assay type: biochemical; conditions: RON (Carna Bioscience)
T1 construct: purchased Carna Bioscience
T1 sequence (Q04912 25-1400): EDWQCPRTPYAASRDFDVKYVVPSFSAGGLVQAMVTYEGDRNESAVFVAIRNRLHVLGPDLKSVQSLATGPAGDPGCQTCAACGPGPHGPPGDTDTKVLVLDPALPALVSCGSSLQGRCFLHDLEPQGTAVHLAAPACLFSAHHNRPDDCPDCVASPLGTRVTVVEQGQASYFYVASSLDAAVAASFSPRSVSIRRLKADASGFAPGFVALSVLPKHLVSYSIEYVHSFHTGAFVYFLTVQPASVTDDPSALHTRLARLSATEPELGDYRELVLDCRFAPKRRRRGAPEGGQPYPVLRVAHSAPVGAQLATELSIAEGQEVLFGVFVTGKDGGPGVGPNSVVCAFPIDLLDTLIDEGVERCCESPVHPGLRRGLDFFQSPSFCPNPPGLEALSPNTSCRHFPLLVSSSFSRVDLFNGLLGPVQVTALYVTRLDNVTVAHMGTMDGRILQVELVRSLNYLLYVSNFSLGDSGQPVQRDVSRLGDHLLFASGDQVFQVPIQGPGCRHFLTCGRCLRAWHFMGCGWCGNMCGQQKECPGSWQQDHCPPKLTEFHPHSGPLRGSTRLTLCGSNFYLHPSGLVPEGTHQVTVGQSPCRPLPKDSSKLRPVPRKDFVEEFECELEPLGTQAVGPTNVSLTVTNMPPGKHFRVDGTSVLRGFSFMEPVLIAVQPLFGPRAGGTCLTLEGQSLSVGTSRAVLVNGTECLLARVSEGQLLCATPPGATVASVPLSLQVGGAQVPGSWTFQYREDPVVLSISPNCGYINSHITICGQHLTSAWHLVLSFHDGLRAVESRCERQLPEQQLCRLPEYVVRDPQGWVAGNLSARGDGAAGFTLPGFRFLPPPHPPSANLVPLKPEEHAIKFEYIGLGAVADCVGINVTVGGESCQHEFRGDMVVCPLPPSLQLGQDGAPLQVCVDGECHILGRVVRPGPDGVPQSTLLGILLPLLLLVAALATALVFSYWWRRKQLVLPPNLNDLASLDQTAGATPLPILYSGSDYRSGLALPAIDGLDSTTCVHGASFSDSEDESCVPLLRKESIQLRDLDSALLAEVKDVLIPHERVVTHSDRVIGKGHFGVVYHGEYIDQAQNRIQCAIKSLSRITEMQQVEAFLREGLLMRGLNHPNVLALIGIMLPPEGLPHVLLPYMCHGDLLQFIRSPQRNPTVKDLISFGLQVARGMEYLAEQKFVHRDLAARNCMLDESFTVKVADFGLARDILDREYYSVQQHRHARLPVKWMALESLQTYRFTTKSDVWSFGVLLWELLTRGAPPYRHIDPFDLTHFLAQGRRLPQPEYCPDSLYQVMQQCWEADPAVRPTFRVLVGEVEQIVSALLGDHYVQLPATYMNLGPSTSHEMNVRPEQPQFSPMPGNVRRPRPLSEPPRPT
Method: Experimental Example 1: Measurement of Enzyme Inhibitory Activity Against RON Tyrosine Kinase
To measure enzyme inhibitory activity of the example compounds against RON, IC50 values of the compounds were measured using fluorescence resonance energy transfer (FRET).
Specifically, first, RON (Carna Bioscience) was diluted in a kinase assay buffer (50 mM HEPES pH 7.5, 1 mM EGTA, 10 mM MgCl2, 2 mM DTT, and 0.01% Tween-20) to be at a concentration (0.4 nM) that is twice the final reaction concentration. The dilute was added to a 384-well-plate at 5 μl per well. Each of the example compounds was prepared at a concentration of 1 mM in 100% DMSO and diluted 8 times in a stepwise manner through 10-fold dilution. Each compound was diluted in a kinase assay buffer to be at a concentration that is 4 times the final reaction concentration. The dilute was added to a 384-well-plate at 2.5 μl per well, and incubation was performed at room temperature for 15 minutes.
Thereafter, an ATP solution (Sigma Aldrich) prepared at a concentration of 0.25 M was diluted in a kinase assay buffer to be at a concentration (60 μM) that is 4 times the final reaction concentration. Dilution of a tyrosine peptide substrate (Perkin-Elmer) was performed therein to be at a concentration (400 nM) that is 4 times the final reaction concentration. The dilute was added to a 384-well-plate at 2.5 µl per well. Reaction was allowed to proceed for 60 minutes by incubating the 384-well-plate at room temperature. Thereafter, EDTA (Sigma Aldrich) was diluted in a TR-FRET detection buffer (Perkin-Elmer) to be at a concentration (20 mM) that is twice the final reaction concentration. Dilution of a Europium-containing phosphotyrosine antibody (Perkin-Elmer) was performed in the diluted EDTA solution to be at a concentration (4 nM) that is twice the final reaction concentration, so that a stop solution for RON reaction was prepared.
The stop solution was added to the 384-well-plate at 10 μl per well to quench the reaction, and incubation was performed at room temperature for 60 minutes. Then, the 384-well-plate was read on a Victor X5 (Perkin-Elmer) plate reader. Here, the excitation wavelength was 340 nm, and the emission wavelengths were 620 nm and 665 nm. An IC50 value of the compound was derived using GraphPad Prism 5 program, in which the IC50 was derived by expressing emission energy at the wavelength of 665 nm as a function of the compound concentration.

[2] = tested on: cancer cell line KM12C, in which RON is activated; assay: Cell growth inhibitory ability in RON-activated cancer cell line (MTS); assay type: cell-based; conditions: Homo sapiens, 48 hours, absorbance 490 nm
Method: Experimental Example 2: Identification of Cell Growth Inhibitory Ability of Example Compounds in RON-Activated Cancer Cell Line
The cancer cell line KM12C (80015, KCLB, MEM+1K° FBS), in which RON is activated, was treated with each of the example compounds at a concentration of 10 μM, and then reaction was allowed to proceed for 48 hours. 24 hours after completion of the reaction, 20 μl of MTS solution (CellTiter 96 Aqueous One Solution Cell Proliferation Assay, product number: G3581, Promega) was added to each well, and then incubation was performed at a temperature of 37° C. in 50 CO2 incubator for 4 hours. Then, an IC50 value of the compound was derived by measuring its absorbance value at a wavelength of 490 nm using a Victor X5 plate reader. Here, as a positive control, N-(4-(2-amino-3-chloropyridin-4-yloxy)-3-fluorophenyl)-4-ethoxy-1-(4-fluorophenyl)-2-oxo-1,2-dihydropyridine-3-carboxamide, which is the compound of Example 1 in WO 2008/058229 A1, was used.

SMILES	IC50 (RON tyrosine kinase) [nM]	IC50 [2] [nM]	cytotoxicity at 1 µM [1] [%]	cytotoxicity at 5 µM [1] [%]
Cn1cc(-c2cc3nccc(Oc4ccc(NC(=O)c5c6c(cn(-c7ccc(F)cc7)c5=O)CCO6)cc4F)c3s2)cn1 [Example 10, N-(3-Fluoro-4-((2-(1-methyl-1H-pyrazol-4-yl)thieno[3,2-b]pyridin-7-yl)oxy)phenyl)-5-(4-fluorophenyl)-6-oxo-2,3,5,6-tetrahydrofuro[3,2-c]pyridine-7-carboxamide]	0.92	–	22	21.9
COC1(C)CN(Cc2ccc(-c3cc4nccc(Oc5ccc(NC(=O)c6c7c(cn(-c8ccc(F)cc8)c6=O)CCO7)cc5F)c4s3)nc2)C1 [Example 16, N-(3-Fluoro-4-((2-(5-((3-methoxy-3-methylazetidin-1-yl)methyl)pyridin-2-yl)thieno[3,2-b]pyridin-7-yl)oxy)phenyl)-5-(4-fluorophenyl)-6-oxo-2,3,5,6-tetrahydrofuro[3,2-c]pyridine-7-carboxamide]	–	1	20.4	24.2
O=C(Nc1ccc(Oc2ccnc3cc(-c4ccc(CN5CC(F)C5)cn4)sc23)c(F)c1)c1c2c(cn(-c3ccc(F)cc3)c1=O)CCO2 [Example 17, N-(3-Fluoro-4-((2-(5-((3-fluoroazetidin-1-yl)methyl)pyridin-2-yl)thieno[3,2-b]pyridin-7-yl)oxy)phenyl)-5-(4-fluorophenyl)-6-oxo-2,3,5,6-tetrahydrofuro[3,2-c]pyridine-7-carboxamide]	–	1	14	27.7
N#CC1CN(Cc2ccc(-c3cc4nccc(Oc5ccc(NC(=O)c6c7c(cn(-c8ccc(F)cc8)c6=O)CCO7)cc5F)c4s3)nc2)C1 [Example 19, N-(4-((2-(5-((3-Cyanoazetidin-1-yl)methyl)pyridin-2-yl)thieno[3,2-b]pyridin-7-yl)oxy)-3-fluorophenyl)-5-(4-fluorophenyl)-6-oxo-2,3,5,6-tetrahydrofuro[3,2-c]pyridine-7-carboxamide]	–	1	15.7	21.9
CC1(O)CCN(Cc2ccc(-c3cc4nccc(Oc5ccc(NC(=O)c6c7c(cn(-c8ccc(F)cc8)c6=O)CCO7)cc5F)c4s3)nc2)C1 (centres unmarked) [Example 24, N-(3-Fluoro-4-((2-(5-((3-hydroxy-3-methylpyrrolidin-1-yl)methyl)pyridin-2-yl)thieno[3,2-b]pyridin-7-yl)oxy)phenyl)-5-(4-fluorophenyl)-6-oxo-2,3,5,6-tetrahydrofuro[3,2-c]pyridine-7-carboxamide]	–	1	18.6	16.9
COC1CCN(Cc2ccc(-c3cc4nccc(Oc5ccc(NC(=O)c6c7c(cn(-c8ccc(F)cc8)c6=O)CCO7)cc5F)c4s3)nc2)C1 (centres unmarked) [Example 25, N-(3-Fluoro-4-((2-(5-((3-methoxypyrrolidin-1-yl)methyl)pyridin-2-yl)thieno[3,2-b]pyridin-7-yl)oxy)phenyl)-5-(4-fluorophenyl)-6-oxo-2,3,5,6-tetrahydrofuro[3,2-c]pyridine-7-carboxamide]	–	1	17.5	21
COc1ccc2nccc(Oc3ccc(NC(=O)c4c5c(cn(-c6ccc(F)cc6)c4=O)CCO5)cc3F)c2c1 [Example 44, N-(3-Fluoro-4-((6-methoxyquinolin-4-yl)oxy)phenyl)-5-(4-fluorophenyl)-6-oxo-2,3,5,6-tetrahydrofuro[3,2-c]pyridine-7-carboxamide]	1.87	–	16	21.4
COc1cc2nccc(Oc3ccc(NC(=O)c4c5c(cn(-c6ccc(F)cc6)c4=O)CCO5)cc3F)c2cc1C(=O)N(C)C [Example 49, N-(4-((6-(Dimethylcarbamoyl)-7-methoxyquinolin-4-yl)oxy)-3-fluorophenyl)-5-(4-fluorophenyl)-6-oxo-2,3,5,6-tetrahydrofuro[3,2-c]pyridine-7-carboxamide]	2.98	–	9.98	11.2
CC1CCN(CCCOc2ccc3c(Oc4ccc(NC(=O)c5c6c(cn(-c7ccc(F)cc7)c5=O)CCO6)cc4F)ccnc3c2)CC1 [Example 162]	1.18	–	16.4	22.6
O=C(Nc1ccc(Oc2ccnc3cc(OCCCN4CCOCC4)c(C(F)(F)F)cc23)c(F)c1)c1c2c(cn(-c3ccc(F)cc3)c1=O)CCO2 [Example 170, N-(3-Fluoro-4-((7-(3-morpholinopropoxy)-6-(trifluoromethyl)quinolin-4-yl)oxy)phenyl)-5-(4-fluorophenyl)-6-oxo-2,3,5,6-tetrahydrofuro[3,2-c]pyridine-7-carboxamide]	> 100	–	–	–

Now from value to molecule, other results behind:

IC50 (RON tyrosine kinase) [nM]	IC50 [2] [nM]	SMILES	cytotoxicity at 1 µM [1] [%]	cytotoxicity at 5 µM [1] [%]
–	2	COC1CN(Cc2ccc(-c3cc4nccc(Oc5ccc(NC(=O)c6c7c(cn(-c8ccc(F)cc8)c6=O)CCO7)cc5F)c4s3)nc2)C1 [Example 14, N-(3-Fluoro-4-((2-(5-((3-methoxyazetidin-1-yl)methyl)pyridin-2-yl)thieno[3,2-b]pyridin-7-yl)oxy)phenyl)-5-(4-fluorophenyl)-6-oxo-2,3,5,6-tetrahydrofuro[3,2-c]pyridine-7-carboxamide]	13.6	21.5
–	3	O=C(Nc1ccc(Oc2ccnc3cc(-c4ccc(CN5CC(F)(F)C5)cn4)sc23)c(F)c1)c1c2c(cn(-c3ccc(F)cc3)c1=O)CCO2 [Example 18, N-(4-((2-(5-((3,3-Difluoroazetidin-1-yl)methyl)pyridin-2-yl)thieno[3,2-b]pyridine-7-yl)oxy)-3-fluorophenyl)-5-(4-fluorophenyl)-6-oxo-2,3,5,6-tetrahydrofuro[3,2-c]pyridine-7-carboxamide]	10.9	11.3
1.5	–	COc1ccc2c(Oc3ccc(NC(=O)c4c5c(cn(-c6ccc(F)cc6)c4=O)CCO5)cc3F)ccnc2c1 [Example 45, N-(3-Fluoro-4-((7-methoxyquinolin-4-yl)oxy)phenyl)-5-(4-fluorophenyl)-6-oxo-2,3,5,6-tetrahydrofuro[3,2-c]pyridine-7-carboxamide]	16.3	18.9
> 100	–	O=C(Nc1ccc(Oc2ccnc3cc(OCCN4CCOCC4)c(C(F)(F)F)cc23)c(F)c1)c1c2c(cn(-c3ccc(F)cc3)c1=O)CCO2 [Example 169, N-(3-Fluoro-4-((7-(2-morpholinoethoxy)-6-(trifluoromethyl)quinolin-4-yl)oxy)phenyl)-5-(4-fluorophenyl)-6-oxo-2,3,5,6-tetrahydrofuro[3,2-c]pyridine-7-carboxamide]	–	–
